Test results from patent publication US20060166866A1, “Cell adhesion inhibitors” (Biogen, Inc., a Massachusetts corporation, priority 1995, published 2006).

molecular target: T1, VLA4 (Homo sapiens, UniProt P05556+P13612); experiment: Inhibition of VLA4-dependent adhesion to BSA-CS1 (fluorescently labelled Ramos cells); format: cell-based; settings: binding of BCECF-labelled Ramos cells to CS1 peptide-coated wells, 2 mM MnCl2, 30 minutes at room temperature
T1 construct: endogenous in cells; host or cells: Ramos cells
T1 sequence (P13612 34-1032): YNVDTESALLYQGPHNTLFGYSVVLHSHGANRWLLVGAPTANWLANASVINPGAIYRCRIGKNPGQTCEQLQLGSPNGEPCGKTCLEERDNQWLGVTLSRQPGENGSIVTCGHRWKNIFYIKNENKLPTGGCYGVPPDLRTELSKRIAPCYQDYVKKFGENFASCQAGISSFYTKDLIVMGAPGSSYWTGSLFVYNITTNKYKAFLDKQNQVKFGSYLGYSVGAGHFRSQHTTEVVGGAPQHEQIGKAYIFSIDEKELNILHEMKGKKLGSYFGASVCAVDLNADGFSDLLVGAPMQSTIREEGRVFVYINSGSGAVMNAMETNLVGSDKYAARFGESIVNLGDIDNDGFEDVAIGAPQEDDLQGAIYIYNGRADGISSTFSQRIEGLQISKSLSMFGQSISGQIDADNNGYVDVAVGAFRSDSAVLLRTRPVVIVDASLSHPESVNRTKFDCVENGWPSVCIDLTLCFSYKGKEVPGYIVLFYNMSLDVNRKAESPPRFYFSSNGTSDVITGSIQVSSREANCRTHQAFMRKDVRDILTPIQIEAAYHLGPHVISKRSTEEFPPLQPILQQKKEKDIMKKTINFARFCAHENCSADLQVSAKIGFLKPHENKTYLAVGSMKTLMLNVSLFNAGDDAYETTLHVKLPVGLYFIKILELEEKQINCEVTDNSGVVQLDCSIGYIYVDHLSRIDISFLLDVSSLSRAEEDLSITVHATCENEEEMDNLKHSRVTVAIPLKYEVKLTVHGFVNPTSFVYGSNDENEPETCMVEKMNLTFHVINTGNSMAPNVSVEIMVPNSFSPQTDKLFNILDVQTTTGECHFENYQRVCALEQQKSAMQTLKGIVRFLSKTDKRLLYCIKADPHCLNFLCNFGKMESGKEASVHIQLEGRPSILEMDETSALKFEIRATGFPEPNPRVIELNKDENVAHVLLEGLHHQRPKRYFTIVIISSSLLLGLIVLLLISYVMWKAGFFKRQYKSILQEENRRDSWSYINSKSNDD
T1 sequence (P05556 21-798): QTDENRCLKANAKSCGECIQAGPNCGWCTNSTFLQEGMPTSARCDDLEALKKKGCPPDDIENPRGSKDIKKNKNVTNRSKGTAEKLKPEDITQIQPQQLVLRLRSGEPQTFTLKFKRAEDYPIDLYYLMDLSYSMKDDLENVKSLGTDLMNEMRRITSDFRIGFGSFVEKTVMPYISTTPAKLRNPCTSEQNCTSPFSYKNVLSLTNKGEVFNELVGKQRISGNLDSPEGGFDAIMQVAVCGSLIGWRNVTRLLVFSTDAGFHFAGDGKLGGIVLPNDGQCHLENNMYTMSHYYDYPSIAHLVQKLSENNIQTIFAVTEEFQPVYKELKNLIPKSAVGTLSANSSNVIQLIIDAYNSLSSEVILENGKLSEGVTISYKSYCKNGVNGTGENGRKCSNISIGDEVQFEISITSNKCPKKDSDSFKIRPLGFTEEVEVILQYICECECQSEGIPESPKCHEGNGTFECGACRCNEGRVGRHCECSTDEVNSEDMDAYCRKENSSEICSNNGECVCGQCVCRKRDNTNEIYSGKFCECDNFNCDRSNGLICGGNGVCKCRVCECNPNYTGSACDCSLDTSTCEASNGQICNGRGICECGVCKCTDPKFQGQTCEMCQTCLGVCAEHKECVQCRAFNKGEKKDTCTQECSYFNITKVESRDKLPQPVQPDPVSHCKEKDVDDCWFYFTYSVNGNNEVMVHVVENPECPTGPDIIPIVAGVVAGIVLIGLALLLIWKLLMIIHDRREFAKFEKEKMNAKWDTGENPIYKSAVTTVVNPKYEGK
Source text: For example, the cell adhesion inhibitory activity of these compounds may be measured by determining the concentration of inhibitor required to block the binding of VLA-4-expressing cells to fibronectin- or CS1-coated plates. In this assay microtiter wells are coated with either fibronectin (containing the CS-1 sequence) or CS-1. If CS-1 is used, it must be conjugated to a carrier protein, such as bovine serum albumin, in order to bind to the wells. Once the wells are coated, varying concentrations of the test compound are then added together with appropriately labelled, VLA-4-expressing cells. Alternatively, the test compound may be added first and allowed to incubate with the coated wells prior to the addition of the cells. The cells are allowed to incubate in the wells format least 30 minutes. Following incubation, the wells are emptied and washed. Inhibition of binding is measured by quantitating the fluorescence or radioactivity bound to the plate for each of the various concentrations of test compound, as well as for controls containing no test compound.
VLA-4-expressing cells that may be utilized in this assay include Ramos cells, Jurkat cells, A375 melanoma cells, as well as human peripheral blood lymophocytes (PBLs). The cells used in this assay may be fluorescently or radioactively labelled.
This assay was used to assess the potency of VLA4-directed inhibitory compounds of this invention.
1. Conjugation of CS1 to BSA
We dissolved BSA-SMCC (Pierce Chemical, Rockford, Ill.; Catalog,# 77115) in H2O at a concentration of 10 mg/mL. [SEQ ID NO:4]:Cys-Tyr-Asp-Glu-Leu-Pro-Gln-Leu-Val-Thr-Leu-Pro-His-Pro-Asn-Leu-His-GIy-Pro-Glu-Ile-Leu-Asp-Val-Pro-Ser-Thr (“Cys-Tyr-CS1 peptide”), which we synthesized by conventional solid phase chemistry and purified by HPLC, was dissolved in 10 mM HEPES pH 5, 50 mM NaCl and 0.1 mM EDTA also at a concentration of 10 mg/mL. We then mixed 500 μL of BSA-SMCC, 250 μL of Cys-Tyr-CS1 peptide and 75 μL of […] and allowed the conjugation reaction to proceed for 30 minutes. We stopped the reaction by adding 1 μL of beta-mercaptoethanol. Samples were analyzed for cross-linking by SDS-PAGE. This reaction produced multiple molecules of the Cys-Tyr-CS1 peptide conjugate to each BSA molecule.
2. Preparation of Plates for Adhesion Assay
We coated the wells of a Linbro titertek polystyrene 96-well flat bottom plate (Flow Laboratories, Maclean, Va.; catalog #76-231-05) with 100 μL of the above-described BSA-CS1 solution diluted to 1 μg/mL in 0.05 M NaHCO3 (15 mM NaHCO3, 35 mM Na2CO3) pH 9.2. Some wells were not coated with CS1 in order to assess non-specific cell binding (NSB). The plate was then incubated overnight at 4° C.
Following this incubation, the contents of the wells were removed by inverting and blotting the plate. All of the wells were then blocked with 100 μL of 1% BSA in PBS, 0.02% NaN3, for a minimum of one hour at room temperature.
3. Preparation of Fluorescently Labelled Ramos Cells
Ramos cells are grown, maintained and labelled in RPMI 1640 culture medium containing 1% BSA. Just prior to running the assay, we added 2′,7′-bis-(2-carboxyethyl)-5 (and -6) carboxyfluorescein acetoxymethyl ester (“BCECF-AM”; Molecular Probes Inc., Eugene, Oreg.; catalog #B-1150) to a final concnetration of 2 μM to a culture of Ramos cells (4×10^6 cells/mL). We incubated the cells for 20 minutes at 37° C.
Following labelling, the cells were washed twice in assay buffer (24 mM TRIS, 137 mM NaCl, 2.7 mM KCl, pH 7.4, containing 0.1% BSA and 2 mM glucose) to remove any cations originating from the culture medium. The cells were then resuspended in assay buffer to 4×10^6 cells/mL and 2 mM MnCl2 was added to upregulate VLA4 on the surface of the cells.
Immediately prior to running the assay, we removed the BSA blocking solution from the 96-well plates and washed the wells with 100 μL of assay buffer. We then added to each well 25 μL of test compound at 2× the final concentration and 25 μL of the labelled Ramos cells. […]

IC50 [nM]	Structure (SMILES)
50 to 10000	CC(C)CC(NC(=O)Cc1ccc(NC(=O)NC(C)(C)C)cc1)C(=O)NC(CC(=O)O)c1ccc2c(c1)OCO2 (stereo not shown) [BIO-1076]
< 50	Cc1ccccc1NC(=O)Nc1ccc(CC(=O)NC(CSCCN(C)C)C(=O)NC(CC(=O)O)c2ccc3c(c2)OCO3)cc1 (stereo not shown) [BIO-1345]
< 50	Cc1ccccc1NC(=O)Nc1ccc(CC(=O)NC(CC(C)C)C(=O)NC(CC(=O)O)c2ccccc2)cc1 (stereo not shown) [BIO-1197]
50 to 10000	Cc1ccc(NC(=O)Nc2ccc(CC(=O)NC(CC(C)C)C(=O)NC(CC(=O)O)c3ccc4c(c3)OCO4)cc2)cc1 (stereo not shown) [BIO-1067]
50 to 10000	CC(C)CC(NC(=O)Cc1ccc(Nc2nc3ccccc3o2)cc1)C(=O)NC(CC(=O)O)c1ccc2c(c1)OCO2 (stereo not shown) [BIO-1396]
50 to 10000	C=CCNC(=O)Nc1ccc(CC(=O)NC(CC(C)C)C(=O)NC(CC(=O)O)c2ccc3c(c2)OCO3)cc1 (stereo not shown) [BIO-1475]
< 50	Cc1ccccc1NC(=O)Nc1ccc(CC(=O)NC(CC(C)C)C(=O)NC(CC(=O)O)c2ccc3c(c2)CCO3)cc1 (stereo not shown) [BIO-1360]
< 50	C#CC(CC(=O)O)NC(=O)C(CC(C)C)NC(=O)Cc1ccc(NC(=O)Nc2ccccc2C)cc1 (stereo not shown) [BIO-1490]
> 10000	CC(C)CC(NC(=O)Nc1ccc([N+](=O)[O-])cc1)C(=O)NC(CC(=O)O)c1ccccc1 (stereo not shown) [BIO-1108]
50 to 10000	CC(C)CNC(=O)C(CC(=O)O)NC(=O)C(CC(C)C)NC(=O)Cc1ccc(NC(=O)Nc2ccccc2)cc1 (stereo not shown) [BIO-1186]
50 to 10000	CC(C)CC(NC(=O)Cc1ccc(NC(=O)Nc2ccccc2)cc1)C(=O)NC(CC(=O)O)c1ccc2c(c1)OCO2 (stereo not shown) [BIO-1128]
< 50	COC(=O)c1ccc(C(CC(=O)O)NC(=O)C(CCSC)NC(=O)Cc2ccc(NC(=O)Nc3ccccc3C)cc2)cc1 (stereo not shown) [BIO-1361]
< 50	COc1ccc(C(CC(=O)O)NC(=O)C(CC(C)C)NC(=O)Cc2ccc(NC(=O)Nc3ccccc3C)cc2)cc1OC (stereo not shown) [BIO-1212]
50 to 10000	COc1ccc(C(CC(=O)O)NC(=O)C(CC(C)C)NC(=O)Cc2ccc(NC(=O)Nc3ccccc3F)cc2)cc1OC (stereo not shown) [BIO-1525]
< 50	COc1ccc(C(CC(=O)O)NC(=O)C(CC(C)C)NC(=O)Cc2ccc(NC(=O)Nc3ccccn3)cc2)cc1 (stereo not shown) [BIO-1194]
> 10000	CC(C)CC(NC(=O)CC(c1ccccc1)c1ccccc1)C(=O)NC(CC(=O)O)c1ccccc1 (stereo not shown) [BIO-1099]
50 to 10000	COc1cccc(C(CC(=O)O)NC(=O)C(CC(C)C)NC(=O)Cc2ccccc2)c1 (stereo not shown) [BIO-1160]
50 to 10000	COc1ccc(C(CC(=O)O)NC(=O)C(CC(C)C)NC(=O)Cc2ccc(NC(=O)Nc3ccc(F)cc3)cc2)cc1OC (stereo not shown) [BIO-1526]
50 to 10000	O=C(O)CC(NC(=O)C(CSCc1ccccc1)NC(=O)Cc1ccc(NC(=O)Nc2ccccc2)cc1)c1ccccc1 (stereo not shown) [BIO-1136]
< 50	COC(=O)NCCCCC(NC(=O)Cc1ccc(NC(=O)Nc2ccccc2C)cc1)C(=O)NC(CC(=O)O)c1ccc2c(c1)OCO2 (stereo not shown) [BIO-1272]
< 50	CC(C)CC(NC(=O)Cc1ccc(NC(=O)Nc2ccccc2)cc1)C(=O)NC(CC(=O)O)c1ccc(F)c(F)c1 (stereo not shown) [BIO-1195]

Continued, molecule first:

Structure (SMILES)	IC50 [nM]
COC(=O)NCCCCC(NC(=O)Cc1ccc(NC(=O)Nc2ncccc2C)cc1)C(=O)NC(CC(=O)O)c1ccc(OC)c(OC)c1 (stereo not shown) [BIO-1311]	50 to 10000
CC(C)CC(NC(=O)Cc1ccc(NC(=O)c2c[nH]c3ccccc23)cc1)C(=O)NC(CC(=O)O)c1ccc2c(c1)OCO2 (stereo not shown) [BIO-1655]	50 to 10000
Cc1ccccc1NC(=O)Nc1ccc(CC(=O)NC(CC(C)C)C(=O)NC(C)CC(=O)O)cc1 (stereo not shown) [BIO-1536]	< 50
CC(C)CC(NC(=O)Cc1ccc(NC(=O)c2cc3ccccc3[nH]2)cc1)C(=O)NCCC(=O)O (stereo not shown) [BIO-1648]	50 to 10000
Cc1ccccc1NC(=O)Nc1ccc(CC(=O)NC(CC(C)C)C(=O)NCCC(=O)O)cc1 (stereo not shown) [BIO-1594]	50 to 10000
C=CCC(CC(=O)O)NC(=O)C(CC(C)C)NC(=O)Cc1ccc(NC(=O)Nc2ccccc2C)cc1 (stereo not shown) [BIO-1515]	< 50
CC(C)CC(NC(=O)Cc1ccc(NC(=S)Nc2ccccc2)cc1)C(=O)NC(CC(=O)O)c1ccc2c(c1)OCO2 (stereo not shown) [BIO-1358]	50 to 10000
Cc1ccccc1NC(=O)Nc1ccc(CC(=O)NC(CSCCCO)C(=O)NC(CC(=O)O)c2ccc3c(c2)OCO3)cc1 (stereo not shown) [BIO-1246]	< 50
CC(C)CC(NC(=O)Cc1ccc(NC(=O)c2ccc[nH]2)cc1)C(=O)NC(CC(=O)O)c1ccc2c(c1)OCO2 (stereo not shown) [BIO-1474]	50 to 10000
CSCCC(NC(=O)Cc1ccc(NC(=O)Nc2ccccn2)cc1)C(=O)NC(CC(=O)O)c1ccc2c(c1)OCO2 (stereo not shown) [BIO-1393]	< 50
COc1ccc(C(CC(=O)O)NC(=O)C(CCSC)NC(=O)Cc2ccc(NC(=O)Nc3ccccn3)cc2)cc1OC (stereo not shown) [BIO-1347]	< 50
COC(=O)c1ccc(C(CC(=O)O)NC(=O)C(CC(C)C)NC(=O)Cc2ccc(NC(=O)Nc3ccccc3)cc2)cc1 (stereo not shown) [BIO-1388]	< 50
Cc1ccccc1NC(=O)Nc1ccc(CC(=O)NC(CC(C)C)C(=O)NC(CC(=O)O)CN2CCOCC2)cc1 (stereo not shown) [BIO-1721]	50 to 10000
CC(C)CC(NC(=O)Cc1ccc(NC(=O)n2ccc3ccccc32)cc1)C(=O)NC(CC(=O)O)c1ccc2c(c1)OCO2 (stereo not shown) [BIO-1327]	50 to 10000
Cc1ccccc1NC(=O)Nc1ccc(CC(=O)NC(CC(C)C)C(=O)NC(CCc2ccccc2)CC(=O)O)cc1 (stereo not shown) [BIO-1400]	< 50
CSCCC(NC(=O)Cc1ccc(NC(=O)Nc2ncccc2C)cc1)C(=O)NC(CC(=O)O)c1ccc2c(c1)OCO2 (stereo not shown) [BIO-1429]	50 to 10000
